According to patent US8541373B2, “BChE albumin fusions for the treatment of cocaine abuse” (priority 2009, dated 2013):
Read-outs that look alike come from different tables or passages of the source.

Assays:
[1] = tested on: cocaine; assay: AlbuBChE PK/PD analysis, direct inhibitory effect Emax model (cocaine concentration at 5 min); conditions: Squirrel monkeys, cocaine at 5 min, approximate estimate
Method: In spite of the limited amount of data, an attempt was made to characterize PK/PD relationship. The computer software WinNonlin Professional (Version 4.0.1 Pharsight Corporation, USA) was used. Specifically the direct Inhibitory Effect Emax model was use in which Emax was assumed at AlbuBChE concentration of zero. The model equation can be described as follows: E=Emax*(1−(C/(C+EC50)))
The PD parameter used in the analysis was cocaine plasma concentration at 5 min post-cocaine dose. PK parameters used in the model were AlbuBChE plasma concentrations at 2, 72 and 96 hr post-AlbuBChE dose. Due to the fact that AlbuBChE concentration was not measured at 2 hr post-AlbuBChE dose, the 1st time sample collected was used in the analysis (24 hr post-AlbuBChE dose) with the assumptions that AlbuBChE concentration at 24 hr post AlbuBChE dose may reflect AlbuBChE concentration at 2 hr post AlbuBChE dose.

[2] = Cardiovascular and respiratory safety pharmacology of AlbuBChE alone (telemetry); conditions: 15 mg/kg IM
Method: Prior to the start of the study, the monkeys were surgically instrumented with telemetry transmitters and vascular access ports. The following CV parameters were monitored: systolic pressure, diastolic pressure, mean arterial blood pressure, mean heart rate and mean rate-pressure product. Body temperatures changes were also monitored.
Study Group 1 (3 males and 3 females), served as a control group for testing the effect of AlbuBChE alone compared to its vehicle. Monkeys were administered (IM) with the control article AlbuBChE formulation buffer on Study Days (SDs) 1 and 4. Three hours post formulation buffer administration respiratory and cardiovascular (CV) parameters were recorded, respectively.
A single IM dose of the test article (AlbuBChE at 15 mg/kg) was administered on SD 8 and 11. Three hours after AlbuBChE dosing (corresponding to Tmax of AlbuBChE) CV and respiratory parameters were monitored, respectively.
The physiological responses to test article administration, including blood pressure, heart rate, body temperature, and the electrocardiograph (ECG), were monitored.

[3] = tested on: cocaine; assay: Effect of AlbuBChE pretreatment on cocaine-induced cardiovascular and body temperature changes; format: in vivo, cynomolgus monkeys
Method: The effect of pretreatment with AlbuBChE prior to cocaine dose on CV parameters was tested on the second group (Group 2) of animals (3 males and 3 females). First baseline CV parameters were recorded on SD 15 after an IM administration of AlbuBChE formulation buffer followed by a single IV administration of saline (cocaine vehicle), 3 hours later. The effect of cocaine on CV parameters was measured on SD 18, on which the animals received a single IM injection of AlbuBChE formulation buffer followed by a single IV dose of cocaine (1 mg/kg, IV), 3 hours later.
The effect of pretreatment with AlbuBChE on cocaine-induced changes in CV parameters was monitored on SD 22. CV parameters were recorded subsequent to a single IM dose of AlbuBChE (15 mg/kg) followed by a single IV dose of cocaine (1 mg/kg), 3 hours later (see Table 21).

[4] = rats, i.v. injection, cited from earlier work
[5] = 15 mg/kg IM 3 hours before cocaine 1 mg/kg IV

With AlbuBChE the “AlbuBChE serum concentration that may result in 50% decrease in cocaine concentration (EC50)” value [1] was roughly 0.4 µg/mL, the “Changes in recorded CV parameters and body temperature vs formulation buffer” value [2] was “did not produce any significant changes” and the Survival ([2]; with or without cocaine) was “All animals survived”. The “Maximum blood pressure after cocaine” value [3, 5] was “decreased”, the “Truncation of time to reversal of blood pressure effect” value [3, 5] was 4.5 fold and the “Time to reversal of cocaine-induced increase in mean arterial blood pressure” value ([3]; 15 mg/kg IM 3 hours before cocaine 1 mg/kg IV (77 minutes with cocaine alone)) was 17 min. The “Body temperature after cocaine” value ([3]; 15 mg/kg IM pre-treatment, cocaine 1 mg/kg IV, base line 38° C. (38.7° C. with cocaine alone)) was 38.3 °C, the “Cocaine-induced increase in heart rate” value ([3]; 15 mg/kg pre-treatment, cocaine 1 mg/kg IV (70% with cocaine alone)) was 30% and the “Time for heart rate to return to baseline after cocaine dose” value ([3]; 15 mg/kg pre-treatment, cocaine 1 mg/kg IV (2 hours with cocaine alone)) was 30 min. For the same substance, the “Peak heart rate after cocaine” value ([3]; 15 mg/kg pre-treatment, cocaine 1 mg/kg IV, baseline 140 (240 with cocaine alone)) was 182 beats/min, the Plasma half-life [4] was “approximately 8 hours” and the Plasma half-life ([4]; listed as BChE-albumin fusion) was 8 h.
